Source: article PMC7343282, “Tissue Distribution of Several Series of Cationic Surfactants in Rainbow Trout (Oncorhynchus mykiss) Following Exposure via Water” (Environmental Science & Technology, 2020)

Test system: rainbow trout (Oncorhynchus mykiss)
Assay: Tissue concentrations in rainbow trout after 7 d exposure via water (two mixtures)
Format: in vivo
Procedure: The study was conducted with rainbow trout (Oncorhynchus mykiss) weighing between 98 and 165 g. The fish were purchased from Nordic trout Sweden AB and held in the aquaria facility prior to the experiment in February 2018. Ethical approval for the experiments was obtained from Stockholms djurförsöksetiska nämnd (decision 9967-2017). The experiments were conducted in 300 L fiberglass aquaria with a water renewal rate of 1.3 L min^–1 (MIX 1) and 1.45 L min^–1 (MIX 2). The water temperature was 10 °C and the pH 7.5. The water hardness was estimated to be 1.1 mM Ca^2+ based on information from the water supplier. The aquaria water was circulated through a filter of polyester wool at 800–1200 L h^–1 with an Eheim 2273 Pro 4+ pump. The outflow from the filter pump was placed above the water surface, providing for aeration. The lighting was dim and programmed on a 12 h light/12 h dark cycle. The fish were fed fish food pellets supplied by the fish farm at 1.0% of their body weight per day.
A solution of the test chemical mixture in methanol was infused continuously (3.5 and 3.8 μL min^–1 for MIX 1 and MIX 2, respectively) into the water inflow using a syringe pump. The intended concentrations of the chemicals in water ranged from 2.5 to 50 μg L^–1 (Table 1). They were selected with the help of modeled estimates of the BCF that were based on reported and extrapolated membrane water partition coefficients[7] and biotransformation rate constants predicted with quantitative structure activity relationships (QSARs)[24],[25] to parameterize the BIONIC model.[26] Based on these estimates, we selected an exposure concentration which would result in concentrations in fish that were clearly above the limit of quantification (LOQ) of the analytical method, while trying to keep the quantifiable exposure concentration as low as possible to minimize the risk of toxic effects and micelle formation (see comparison of intended concentrations with available toxicological data in Table S4).
The surface of the fish posterior of the gills was rinsed with 100% methanol to remove test chemical residues adsorbed to the outer surface of the skin and absorbed in the skin mucus. […] The fish were dissected and the liver, the kidney, the gills, and the remaining contents of the abdominal cavity were taken and weighed. Skin and muscle samples were prepared from the upper dorsal region on semi-frozen fish after the methanol rinse had removed the mucus. The main part of the subcutaneous fat tissue was included in the muscle samples rather than in the skin samples. All samples were stored frozen at −20 °C until further analysis.
For 6 fish from each aquarium and 3 control fish, samples of muscle, skin, liver, and gills were homogenized in a bullet blender (muscle and liver) (MiniG, SPEXsamplePrep) or in a cryo-mill (skin and gill) (Mixer mill cryomill, Retsch GmbH). A sub-sample of 0.5–1.2 g of the homogenate was extracted twice in methanol (4 mL, 50 °C, ultra-sound, 60 min), employing centrifugation at 4000 rpm for phase separation. Further information on the extraction efficiency of this method can be found in the Supporting Information (Table S5 and accompanying text). Isotope labeled standards of Q10 (D21), Q14 (D29), and P16 (D33) were added to a portion of the extract corresponding to 12–75 mg of the sample. The extract volume was adjusted to 3 mL with methanol and then cleaned up on a weak cationic exchange SPE column (WCX, 60 mg, 30 μm particle size, waters). Solvent elution was performed by gravity flow. The column was conditioned with 2 mL of methanol, followed by 2 mL of Milli-Q water adjusted to pH 7 with ammonium hydroxide to activate the ion exchange. The sample extract was loaded onto the column, and it was subsequently rinsed with 20 mL of methanol.

[1] = rainbow trout (Oncorhynchus mykiss), in vivo, 7 d
[2] = rainbow trout (Oncorhynchus mykiss), in vivo, 7 d, pH 7.5
[3] = mean of exposed fish, Table S10
[4] = mean of exposed fish, Table S11
[5] = mean of exposed fish, Table S12
[6] = mean of exposed fish, Table S13
[7] = mean of exposed fish, Table S14
[8] = mean of exposed fish, Table S15
[9] = methanol rinse normalized to fish surface area, mean of six fish (RSD %)
[10] = wet weight, mean of six fish (RSD % in brackets), 7 d exposure, Q10 below LOQ
[11] = wet weight, mean of six fish (RSD %), 7 d exposure, Q10, Q14 below LOQ

Compound: CCCCCCCCCN [P9, Nonylamine]
- Concentration in gills [1]: 1200 (12) ng g^–1
- Concentration in liver [1]: 1710 (40) ng g^–1
- Concentration in skin [1]: 132 (36) ng g^–1
- Concentration in blood [2]: 46 (29) ng g^–1
- Concentration in muscle [2]: 27 (39) ng g^–1
- Concentration in skin, per surface area [2]: 11.6 ng cm-2

Compound: CCCCCCCCCCCCN [P12, Dodecylamine]
- Concentration in gills [1]: 20 000 (10) ng g^–1
- Concentration in liver [1]: 42 000 (15) ng g^–1
- Concentration in skin [1]: 3900 (25) ng g^–1
- Concentration in blood [2]: 770 (26) ng g^–1
- Concentration in muscle [2]: 630 (28) ng g^–1
- Concentration in skin, per surface area [2]: 310 ng cm-2

Compound: CCCCCCCCCCCCCN [P13, tridecylamine]
- Concentration in gills [1]: 17 800 (12) ng g^–1
- Concentration in liver [1]: 50 000 (26) ng g^–1
- Concentration in skin [1]: 2400 (19) ng g^–1
- Concentration in blood [2]: 540 (12) ng g^–1
- Concentration in muscle [2]: 530 (16) ng g^–1
- Concentration in skin, per surface area [2]: 195 ng cm-2

Compound: CCCCCCCCCCCCCCCCN [P16, hexadecylamine]
- Concentration in gills [1]: 8700 (15) ng g^–1
- Concentration in liver [1]: 5500 (10) ng g^–1
- Concentration in skin [1]: 420 (25) ng g^–1
- Concentration in blood [2]: 130 (19) ng g^–1
- Concentration in muscle [2]: 111 (22) ng g^–1
- Concentration in skin, per surface area [2]: 30 ng cm-2

Compound: CCCCCCCCCN(C)C [T9, N,N-dimethylnonylamine]
- Concentration in blood (exposed fish #1): 305 ng/g
- Concentration in gills (exposed fish #1): 1126 ng/g
- Concentration in gills, surface area-normalized (exposed fish #1): 15.7 ng cm-2
- Concentration in liver (exposed fish #1): 3588 ng/g
- Concentration in mucus (exposed fish #1): 19 ng cm-2
- Concentration in muscle (exposed fish #1): 173 ng/g
- Concentration in skin, per surface area (exposed fish #1): 48 ng cm-2
- Concentration in blood (exposed fish #2): 334 ng/g
- Concentration in gills (exposed fish #2): 1320 ng/g
- Concentration in gills, surface area-normalized (exposed fish #2): 17.4 ng cm-2
- Concentration in liver (exposed fish #2): 2592 ng/g
- Concentration in mucus (exposed fish #2): 17 ng cm-2
- Concentration in muscle (exposed fish #2): 173 ng/g
- Concentration in skin, per surface area (exposed fish #2): 32 ng cm-2
- Concentration in blood (exposed fish #3): 475 ng/g
- Concentration in gills (exposed fish #3): 1432 ng/g
- Concentration in liver (exposed fish #3): 2863 ng/g
- Concentration in mucus (exposed fish #3): 15 ng cm-2
- Concentration in muscle (exposed fish #3): 200 ng/g
- Concentration in skin, per surface area (exposed fish #3): 28 ng cm-2
- Concentration in blood (exposed fish #4): 251 ng/g
- Concentration in gills (exposed fish #4): 1130 ng/g
- Concentration in gills, surface area-normalized (exposed fish #4): 17.5 ng cm-2
- Concentration in liver (exposed fish #4): 1593 ng/g
- Concentration in mucus (exposed fish #4): 18 ng cm-2
- Concentration in muscle (exposed fish #4): 146 ng/g
- Concentration in skin, per surface area (exposed fish #4): 32 ng cm-2
- Concentration in blood (exposed fish #5): 323 ng/g
- Concentration in gills (exposed fish #5): 1240 ng/g
- Concentration in gills, surface area-normalized (exposed fish #5): 17.6 ng cm-2
- Concentration in liver (exposed fish #5): 5463 ng/g
- Concentration in mucus (exposed fish #5): 12 ng cm-2
- Concentration in muscle (exposed fish #5): 158 ng/g
- Concentration in skin, per surface area (exposed fish #5): 28 ng cm-2
- Concentration in blood (exposed fish #6): 291 ng/g
- Concentration in gills (exposed fish #6): 869 ng/g
- Concentration in gills, surface area-normalized (exposed fish #6): 11.3 ng cm-2
- Concentration in liver (exposed fish #6): 7230 ng/g
- Concentration in mucus (exposed fish #6): 9 ng cm-2
- Concentration in muscle (exposed fish #6): 111 ng/g
- Concentration in skin, per surface area (exposed fish #6): 19 ng cm-2
- Concentration in blood [3]: 330 ng/g
- Concentration in muscle [4]: 160 ng/g
- Concentration in liver [5]: 3887 ng/g
- Concentration in gills [6]: 1186 ng/g
- Concentration in gills, surface area-normalized [6]: 15.9 ng cm-2
- Concentration in skin, per surface area [7]: 31 ng cm-2
- Concentration in mucus [8]: 15 ng cm-2
- Concentration in mucus [9]: 15 (24) ng cm^–2
- Concentration in gills (wet weight, mean of fish (RSD %), 7 d exposure): 1190 (16) ng g^–1
- Concentration in blood [10]: 330 (23) ng g^–1
- Concentration in liver [11]: 3900 (49) ng g^–1
- Concentration in muscle [11]: 160 (19) ng g^–1
- Concentration in skin [11]: 390 (40) ng g^–1

Compound: CCCCCCCCCCCCCN(C)C [T13, N,N-dimethyltridecylamine]
- Concentration in blood (exposed fish #1): 890 ng/g
- Concentration in gills (exposed fish #1): 9077 ng/g
- Concentration in gills, surface area-normalized (exposed fish #1): 140 ng cm-2
- Concentration in liver (exposed fish #1): 6570 ng/g
- Concentration in mucus (exposed fish #1): 57 ng cm-2
- Concentration in muscle (exposed fish #1): 580 ng/g
- Concentration in skin (exposed fish #1): 1879 ng/g
- Concentration in skin, per surface area (exposed fish #1): 89 ng cm-2
- Concentration in blood (exposed fish #2): 816 ng/g
- Concentration in gills (exposed fish #2): 9391 ng/g
- Concentration in gills, surface area-normalized (exposed fish #2): 150 ng cm-2
- Concentration in liver (exposed fish #2): 8202 ng/g
- Concentration in mucus (exposed fish #2): 59 ng cm-2
- Concentration in muscle (exposed fish #2): 593 ng/g
- Concentration in skin (exposed fish #2): 1877 ng/g
- Concentration in skin, per surface area (exposed fish #2): 160 ng cm-2
- Concentration in blood (exposed fish #3): 1018 ng/g
- Concentration in liver (exposed fish #3): 13696 ng/g
- Concentration in mucus (exposed fish #3): 52 ng cm-2
- Concentration in muscle (exposed fish #3): 601 ng/g
- Concentration in skin (exposed fish #3): 2115 ng/g
- Concentration in skin, per surface area (exposed fish #3): 150 ng cm-2
- Concentration in blood (exposed fish #4): 858 ng/g
- Concentration in gills (exposed fish #4): 9586 ng/g
- Concentration in gills, surface area-normalized (exposed fish #4): 178 ng cm-2
- Concentration in liver (exposed fish #4): 20532 ng/g
- Concentration in mucus (exposed fish #4): 63 ng cm-2
- Concentration in muscle (exposed fish #4): 882 ng/g
- Concentration in skin (exposed fish #4): 2718 ng/g
- Concentration in skin, per surface area (exposed fish #4): 154 ng cm-2
- Concentration in blood (exposed fish #5): 795 ng/g
- Concentration in gills (exposed fish #5): 11785 ng/g
- Concentration in gills, surface area-normalized (exposed fish #5): 209 ng cm-2
- Concentration in liver (exposed fish #5): 12097 ng/g
- Concentration in mucus (exposed fish #5): 70 ng cm-2
- Concentration in muscle (exposed fish #5): 767 ng/g
- Concentration in skin (exposed fish #5): 1738 ng/g
- Concentration in skin, per surface area (exposed fish #5): 154 ng cm-2
- Concentration in blood (exposed fish #6): 1205 ng/g
- Concentration in gills (exposed fish #6): 11130 ng/g
- Concentration in gills, surface area-normalized (exposed fish #6): 148 ng cm-2
- Concentration in liver (exposed fish #6): 9499 ng/g
- Concentration in mucus (exposed fish #6): 70 ng cm-2
- Concentration in muscle (exposed fish #6): 606 ng/g
- Concentration in skin (exposed fish #6): 2209 ng/g
- Concentration in skin, per surface area (exposed fish #6): 162 ng cm-2
- Concentration in blood [3]: 930 ng/g
- Concentration in muscle [4]: 672 ng/g
- Concentration in liver [5]: 11766 ng/g
- Concentration in gills [6]: 10194 ng/g
- Concentration in gills, surface area-normalized [6]: 165 ng cm-2
- Concentration in skin [7]: 2089 ng/g
- Concentration in skin, per surface area [7]: 145 ng cm-2
- Concentration in mucus [8]: 62 ng cm-2
- Concentration in mucus [9]: 62 (9) ng cm^–2
- Concentration in blood [10]: 930 (17) ng g^–1
- Concentration in muscle [11]: 670 (19) ng g^–1
- Concentration in skin [11]: 2100 (17) ng g^–1
